This is an account of results in publication PMC7912796, “Design, Synthesis, Anticancer Activity, and Solid Lipid Nanoparticle Formulation of Indole- and Benzimidazole-Based Compounds as Pro-Apoptotic Agents Targeting Bcl-2 Protein” (Pharmaceuticals, 2021).

The melting point is the temperature, or range, at which the solid turns liquid. By IC50 is commonly meant the concentration that inhibits the measured activity by half.

Series [1] relates to MDA-MB-231/breast cancer cells. Kind of series: MTT-cell proliferation assay. It counts as cell-based, human. Particulars: for IC50: 48 h drug exposure, mean of three experiments ± SEM. The text has this:
(§1) The potential anti-cancer activity of all fourteen final synthesized compounds was investigated through MTT cytotoxic assay against two different human solid cancerous cell lines; A549/lung and MDA-MB-231/breast adenocarcinoma. The adopted cell-proliferation assay assessed % cell viability in relation to the reducing activity of cellular NADPH-dependent cellular oxidoreductases on tetrazolium dye, MTT [2,5-diphenyl-3-(4,5-dimethylthiazol-2-yl)tetrazolium bromide salt], for furnishing an easily quantified insoluble chromogenic formazan. For each drug concentration, 0.1, 1, 10, and 100 μM, the % cell-viability was estimated relative to negative control following a complete 48 h of drug treatment. Both 5-fluorouracil (5-FU) and doxorubicin (DOX) were set as positive index comparators. Moreover, the safety profile of the synthesized compounds was further investigated by examining their in-vitro cytotoxicity on non-cancerous cell line; MDCK/kidney cells.
(§2) Evaluating the cytotoxicity of tested compounds on two cancer cell lines (A549/lung and MDA-MB-231/breast adenocarcinoma) and non-cancerous (MDCK/kidney cells) was performed while adopting the formerly described method with small alterations. Cancer cell lines were propagated within Dulbecco’s Modified Eagle Medium-High Glucose (Cat.#: P0103; DMEM_High Glucose with Na.Pyruvate and stable Glutamine, Biowest^TM, Nuaillé, France), while MDA-MB-231 cells were propagated within RPMI-1640 L-Glutamine medium (Cat.#:12-604F; Lonza-Verviers SPRL^TM, Verviers, Belgium). The culturing media were supplemented via 1% antibiotic-antimycotic 100X (Cat.#: L0010; Biowest^TM, Nuaillé, France) and 10% fetal bovine serum (FBS) (Cat.#: EU-000-H; Seralab^TM, West Sussex, UK). Cells were seeded as triplicates within 96-well plate, at 1 × 10^4 cells per well density, after being counted and viability checked using the trypan blue staining solution (Cat.# ab233465; Abcam^TM, Cambridge, MA, USA). Seeded cells were permitted to adhere for 24 h under 5% CO2 and at 37 °C incubating conditions. The assigned compounds were dissolved in 500 µL DMSO affording the stock solution (100 mM) being ready for more diluting within the whole medium to obtain the compound’s final concentrations; 0.1, 1, 10, 100 µM for cell treatments. […] Following 24 h compound-cell treatment, the medium was substituted by fresh one and cells were permitted to develop for 48 h. At four hours prior the end of incubation, 10 μL MTT Sigma-Aldrich^TM (5 mg/mL in PBS 1X without magnesium and calcium; Cat.# 17-516F, Lonza-Verviers^TM, Basel, Switzerland) were added to all wells. Following the complete 48 h incubation, 100 μL DMSO was all added to all wells where they were subsequently centrifuged at 4000 rpm for 5 min allowing the formazan crystals of formazan to precipitate. Color was established and intensities were recorded at 490 nm using Synergy-Neo2® Hybrid MultiMode Plate Reader (BioTek^TM, Winooski, VT, USA), while subtracting the multi-well plates background absorbance at 690 nm. Percentage cell viability was estimated using the subsequent formula: % cell-viability = (average absorbance of treated wells/average absorbance of controls) × 100.
(In general: Formazan colour is commonly taken as a measure of viable cells.)

Series [2] deals with A549/lung adenocarcinoma cells. Put plainly: MTT-cell proliferation assay. It is filed as cell-based, human. Particulars: for IC50: Homo sapiens, A549, 48 h drug exposure, mean of three experiments ± SEM.
From the text: as §1, §2

Series [3] deals with A549/lung adenocarcinoma. Put plainly: Morphological assessment. It counts as cell-based, human. Particulars: 0.1-100 µM (5-FU 100 µM), 48 h, phase-contrast microscope.
For series [4], the system named is MDCK/kidney non-cancerous cells. Kind of series: MTT-cell proliferation assay on non-cancerous cell line. It is filed as cell-based. Particulars: Canis lupus familiaris, MDCK, 48 h, 48 h drug exposure, mean ± SEM.
From the text: as §1, §2

The compound `Cc1cccc(NCc2nc3ccccc3[nH]2)c1` [Compound 3a, N-((1H-benzo[d]imidazol-2-yl)methyl)-3-methylaniline] yielded a melting point of 139 to 141 °C. Also, the IC50 in series [1] (Homo sapiens, MDA-MB-231, 48 h) worked out at 29.7 ± 4.03 µM.
In turn, `Cc1cccc(C)c1NCc1nc2ccccc2[nH]1` [Compound 3b, N-((1H-benzo[d]imidazol-2-yl)methyl)-2,6-dimethylaniline] gave a melting point of 159 to 161 °C. In series [2] (0.1-100 µM), the “effect on cell proliferation” value was “irregular effects with tendency to increase the cell proliferation”.
`O=c1[nH]cc(F)c(=O)[nH]1` [Compound 5-FU, 5-fluorouracil, reference compound]: the cell morphology alterations entry in series [3] is reported as “epithelial-mesenchymal transition was observed”.
Consider `COc1ccc(C=NNC(=O)c2cc3ccccc3[nH]2)cc1` [Compound 7b, N′-(4-methoxybenzylidene)-1H-indole-2-carbohydrazide], for which the melting point lay within 104 to 106 °C. The IC50 in series [1] (Homo sapiens, MDA-MB-231, 48 h) was 43.8 ± 1.09 µM. Also, in series [4], the IC50 came to 28.9 ± 1.49 µM.
As to `Oc1ccc(NCc2nc3ccccc3[nH]2)cc1` [Compound 3d, 4-(((1H-benzo[d]imidazol-2-yl)methyl)amino)phenol], the melting point lay within 139 to 141 °C.
For the compound `CCc1ccc(-c2nn(-c3ccccc3)cc2C=NNC(=O)c2cc3ccccc3[nH]2)cc1` [Compound 8a, N′-((3-(4-ethylphenyl)-1-phenyl-1H-pyrazol-4-yl)methylene)-1H-indole-2-carbohydrazide], the melting point lay in the range of 254 to 256 °C. Further, the IC50 in series [2] stood at 23.1 ± 1.45 µM. In series [1] (Homo sapiens, MDA-MB-231, 48 h), the IC50 worked out at 12.7 ± 0.84 µM. In series [4], the 50% inhibitory concentration (IC50) is 73.9 ± 2.3 µM.
`O=C(NN=Cc1cccnc1)c1cc2ccccc2[nH]1` [Compound 7d, N′-(pyridin-3-ylmethylene)-1H-indole-2-carbohydrazide]: the melting point was 252 to 254 °C. The IC50 in series [1] (Homo sapiens, MDA-MB-231, 48 h) turned out to be 17.4 ± 3.23 µM.
With `CN(C)c1ccc(C=NNC(=O)c2cc3ccccc3[nH]2)cc1` [Compound 7c, N′-(4-(dimethylamino)benzylidene)-1H-indole-2-carbohydrazide], the melting point was in the range of 90 to 92 °C.
With `Brc1cccc(NCc2nc3ccccc3[nH]2)c1` [Compound 3c, N-((1H-benzo[d]imidazol-2-yl)methyl)-3-bromoaniline], the melting point was in the range of 139 to 141 °C. For the same compound, the “effect on cell proliferation” value in series [1] (100 µM drug concentration) was “enhanced cell proliferation”.
Turning to `CC(C)c1ccc(-c2nn(-c3ccccc3)cc2C=NNC(=O)c2cc3ccccc3[nH]2)cc1` [Compound 8c, N′-((3-(4-isopropylphenyl)-1-phenyl-1H-pyrazol-4-yl)methylene)-1H-indole-2-carbohydrazide], the melting point is 219 to 221 °C. Further, the IC50 in series [2] amounted to 11.6 ± 2.57 µM. The IC50 in series [1] (Homo sapiens, MDA-MB-231, 48 h) was 12.8 ± 3.5 µM. In series [4], the IC50 stood at 87.3 ± 3 µM.
For the compound `Cc1nn(-c2ccc([N+](=O)[O-])c([N+](=O)[O-])c2)c(Cl)c1C=NNC(=O)c1cc2ccccc2[nH]1` [Compound 8f, N′-((5-chloro-1-(3,4-dinitrophenyl)-3-methyl-1H-pyrazol-4-yl)methylene)-1H-indole-2-carbohydrazide], the melting point was in the range of 204 to 206 °C. Further, in series [1], the IC50 was determined as 21.6 ± 0.28 µM. Further, in series [1] (Homo sapiens, MDA-MB-231, 48 h), the IC50 is 31.5 µM.
`O=C(NN=Cc1ccccc1)c1cc2ccccc2[nH]1` [Compound 7a, N′-benzylidene-1H-indole-2-carbohydrazide] had a melting point of 111 to 113 °C.
`CC(C)Cc1ccc(-c2nn(-c3ccccc3)cc2C=NNC(=O)c2cc3ccccc3[nH]2)cc1` [Compound 8d, N′-((3-(4-isobutylphenyl)-1-phenyl-1H-pyrazol-4-yl)methylene)-1H-indole-2-carbohydrazide] displayed a melting point of 229 to 231 °C. The IC50 in series [1] was 31.5 ± 4.66 µM. Also, the IC50 in series [1] (Homo sapiens, MDA-MB-231, 48 h) came to 21.6 µM.
